US11225460B2, “Pyrrolidineamide derivatives and uses thereof” (SUNSHINE LAKE PHARMA CO., LTD., priority 2019, dated 2022)
Like-named read-outs stand apart in the source and are kept apart here.

Assays:
[1] = molecular target: T1, Human recombinant monoamine oxidase B (Homo sapiens, UniProt P27338); assay: Inhibitory effect on the activity of monoamine oxidase B; format: biochemical; conditions: human recombinant MAO-B, substrate benzylamine hydrochloride
T1 construct: host or cells: Sf9 cells
T1 sequence (P27338 1-520): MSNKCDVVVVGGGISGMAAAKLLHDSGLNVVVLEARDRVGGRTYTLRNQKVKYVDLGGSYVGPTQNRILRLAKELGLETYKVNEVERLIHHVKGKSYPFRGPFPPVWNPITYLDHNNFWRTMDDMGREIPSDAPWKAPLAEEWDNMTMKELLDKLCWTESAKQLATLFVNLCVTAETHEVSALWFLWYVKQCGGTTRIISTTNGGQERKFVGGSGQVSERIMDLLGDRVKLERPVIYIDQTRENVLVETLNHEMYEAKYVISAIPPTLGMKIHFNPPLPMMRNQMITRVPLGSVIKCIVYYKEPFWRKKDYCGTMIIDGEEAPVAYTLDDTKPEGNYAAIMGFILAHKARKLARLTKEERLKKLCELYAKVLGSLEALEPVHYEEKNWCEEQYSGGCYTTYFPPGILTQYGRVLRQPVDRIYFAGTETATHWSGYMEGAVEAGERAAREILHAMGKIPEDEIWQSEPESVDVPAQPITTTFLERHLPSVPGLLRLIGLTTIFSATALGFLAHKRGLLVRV
Method: Human recombinant monoamine oxidase B expressed in Sf9 cells was used in the test system. In the experiment, firstly, the recombinant monoamine oxidase B was dissolved in the pre-configured HEPES buffer (0.8% NaCl, 0.037% KCl, 0.0135% Na2HPO4.2H2O, 0.1% Glucan, 0.5% HEPES, pH=7.0) at a concentration of 0.3 μg/μL. To each well of a 384-well plate was added 10 μL of monoamine oxidase B solution, and the test compound with different concentrations (the final concentration of DMSO was 1%) (10 gradient concentrations were 10 mM, 1 mM, 100 μM, 10 μM, 1 μM, 100 nM, 10 nM, 1 nM, 0.1 nM, 0.01 nM) were added into the wells respectively. The standard reference compound was R-(−)-Deprenyl, the plate was incubated at room temperature for 15 min. Then, each well filled with 10 μL substrate solution (Benzylamine hydrochloride, 1 mM) was incubated at room temperature for 60 min. Then 20 μL of fluorescein detection reagent was added to each well, which was fully blended and incubated at room temperature for 20 minutes to produce stable fluorescence signal. The fluorescence signal was read by fluorescein labeling instrument, and the value was expressed by relative light intensity (RLU). The inhibitory rate on enzyme activity was calculated according to the experimental results, the calculated formula: Inh %=(Max−Signal)/(Max−Min)*100, wherein Max was the detected value at the maximum concentration of the sample, Min was the detected value at the minimum concentration of the sample, and Signal was the detected value at the current concentration of the sample.
The standard curve was obtained through the series concentration by experimental test to calculate the IC50.

[2] = Evaluation of blood-brain barrier (BBB) after peritoneal injection in rats; format: in vivo; conditions: SD rats, intraperitoneal 10 mg/kg; for Kp at 15 min / Kp at 60 min / Kp at 120 min: Sprague-Dawley, rat
Method: The analysis method was the same as example B.
The experiment was divided into three groups: 15 min group, 1 h group and 2 h group. After overnight fasting for 12 hours, SD rats were administered by intraperitoneal injection with the compound of the invention in the form of 5% DMSO+5% Kolliphor HS15+90% Saline solution at a dose of 10 mg/kg. Blood, cerebrospinal fluid and brain tissue were collected at 15 minutes, 1 hour and 2 hours respectively after administration. Blood samples were centrifuged at 3,000 or 4,000 rpm for 10 minutes. The plasma solution was collected and kept at −20° C. or −70° C. The cerebrospinal fluid was processed using a protein precipitation method. A certain volume of cerebrospinal fluid sample were precisely absorbed and precipitated by adding 5 times acetonitrile solution containing internal standard. The mixture was mixed well by vortexing, and then centrifuged for 2 minutes at 12,000 rpm at 4° C., the supernatant was kept at −80° C. Brain tissue was homogenized with 2 times methanol solution, and centrifuged to get the supernatant, the supernatant were precipitated by adding 5 times acetonitrile solution containing internal standard.
The mixture was mixed well by vortexing, and then centrifuged for 2 minutes at 12,000 rpm at 4° C., the supernatant was kept at −80° C. LC-MS/MS method was used to detect the concentration of target compounds, BBB permeability was calculated and statistical analysis was carried out.

[3] = brain, 15 min, read-out: T/P Ratio Brain (brain tissue)
[4] = brain, 60 min, read-out: T/P Ratio Brain (brain tissue)
[5] = brain, 120 min, read-out: T/P Ratio Brain (brain tissue)
[6] = cerebrospinal fluid, 15 min, read-out: T/P Ratio CSF (cerebrospinal fluid)
[7] = cerebrospinal fluid, 60 min, read-out: T/P Ratio CSF (cerebrospinal fluid)
[8] = cerebrospinal fluid, 120 min, read-out: T/P Ratio CSF (cerebrospinal fluid)

SMILES | IC50 [1] [µM] | Conc. Brain (brain tissue) ([2]; 15 min) | Conc. CSF (cerebrospinal fluid) ([2]; 15 min) | Conc. Plasm (plasma) ([2]; 15 min) | Conc. Brain (brain tissue) ([2]; 60 min) | Conc. CSF (cerebrospinal fluid) ([2]; 60 min) | Conc. Plasm (plasma) ([2]; 60 min) | Conc. Brain (brain tissue) ([2]; 120 min) | Conc. CSF (cerebrospinal fluid) ([2]; 120 min) | Conc. Plasm (plasma) ([2]; 120 min) | Kp at 15 min [2, 3] | Kp at 60 min [2, 4] | Kp at 120 min [2, 5] | Kp at 15 min [2, 6] | Kp at 60 min [2, 7] | Kp at 120 min [2, 8]
NC(=O)[C@@H]1C[C@H](F)CN1Cc1ccc(OCc2cccc(F)c2)cc1 [Example 1, (2S,4S)-4-fluoro-1-(4-(3-fluorobenzyloxy)benzyl)pyrrolidine-2-formamide] | 0.019 | 10243.33 ng/g or ng/ml | 147.67 ng/g or ng/ml | 5203.33 ng/g or ng/ml | 9273.33 ng/g or ng/ml | 61.9 ng/g or ng/ml | 2073.33 ng/g or ng/ml | 2890 ng/g or ng/ml | 34.4 ng/g or ng/ml | 864.33 ng/g or ng/ml | 1.97 | 4.47 | 3.34 | 0.028 | 0.03 | 0.04
NC(=O)[C@@H]1C[C@H](F)CN1Cc1ccc(OCc2cccc(F)c2)cc1F [Example 3, (2S,4S)-4-fluoro-1-(2-fluoro-4-(3-fluorobenzyloxy)benzyl)pyrrolidine-2-formamide] | 0.03 | 8610 ng/g or ng/ml | 56.67 ng/g or ng/ml | 3496.67 ng/g or ng/ml | 5253.33 ng/g or ng/ml | 39.77 ng/g or ng/ml | 1930 ng/g or ng/ml | 1576.67 ng/g or ng/ml | 13.05 ng/g or ng/ml | 686.67 ng/g or ng/ml | 2.46 | 2.72 | 2.3 | 0.016 | 0.021 | 0.019
